Assay [1] has as its system HepG2. The experiment in a line: Cytotoxicity against human HepG2 cells assessed as reduction in cell growth after 3 days by MTT assay. It is filed as functional, cell-based. The conditions noted are these: HepG2, 72 h.
Assay [2] deals with KB. The experiment in a line: Cytotoxicity against human KB cells assessed as reduction in cell growth after 3 days by MTT assay. It is filed as functional, cell-based. The note with it: 72 h.

As to `CN[C@H](C(=O)N[C@H](C(=O)N(C)[C@H](/C=C(\C)C(=O)O)C(C)C)C(C)(C)C)C(C)(C)c1coc2ccccc12`, the IC50 in assay [1] is 1.9 nM; in assay [2], 1.7 nM.

Turning to `CN[C@H](C(=O)N[C@H](C(=O)N(C)[C@H](/C=C(\C)C(=O)O)C(C)C)C(C)(C)C)C(C)(C)c1ccc(Br)cc1`, the IC50 came out at 1.8 nM in assay [1] and 1.7 nM in assay [2].

Regarding `CCOC(=O)/C(C)=C/[C@H](C(C)C)N(C)C(=O)[C@@H](NC(=O)[C@@H](NC)C(C)(C)c1coc2ccccc12)C(C)(C)C`, the IC50 turned out to be 11 nM in assay [1] and 13 nM in assay [2].

On to `CN[C@@H](C(=O)N[C@H](C(=O)N(C)[C@H](/C=C(\C)C(=O)O)C(C)C)C(C)(C)C)C(C)(C)c1coc2ccccc12`, for which the IC50 was 37 nM in assay [1] and 43 nM in assay [2].

Regarding `CN[C@@H](C(=O)N[C@H](C(=O)N(C)[C@H](/C=C(\C)C(=O)O)C(C)C)C(C)(C)C)C(C)(C)c1ccc(Br)cc1`, the IC50 in assay [1] came to 13 nM; in assay [2], 11 nM.

For `CN[C@@H](C(=O)N[C@H](C(=O)N(C)[C@H](/C=C(\C)C(=O)O)C(C)C)C(C)(C)C)C(C)(C)c1ccc2ccccc2c1`, the IC50 in assay [1] was 34 nM; in assay [2], 14 nM.

`CCOC(=O)/C(C)=C/[C@H](C(C)C)N(C)C(=O)[C@@H](NC(=O)[C@@H](NC)C(C)(C)c1ccc(Br)cc1)C(C)(C)C`: the IC50 came to 6 nM in assay [1] and 12 nM in assay [2].

Take `CN[C@H](C(=O)N[C@H](C(=O)N(C)[C@H](/C=C(\C)C(=O)O)C(C)C)C(C)(C)C)C(C)(C)c1ccc2ccccc2c1`: the IC50 in assay [1] and in assay [2] was 1.9 nM in each case.

Take `CCOC(=O)/C(C)=C/[C@H](C(C)C)N(C)C(=O)[C@@H](NC(=O)[C@H](NC)C(C)(C)c1ccc2ccccc2c1)C(C)(C)C`: the IC50 in assay [1] was 144 nM; in assay [2], 181 nM.

In the case of `CCOC(=O)/C(C)=C/[C@H](C(C)C)N(C)C(=O)[C@@H](NC(=O)[C@H](NC)C(C)(C)c1coc2ccccc12)C(C)(C)C`, the results for the IC50 in assay [1] and in assay [2] were 730 nM and 760 nM, respectively.

As to `CCOC(=O)/C(C)=C/[C@H](C(C)C)N(C)C(=O)[C@@H](NC(=O)[C@@H](NC)C(C)(C)c1ccc2ccccc2c1)C(C)(C)C`, the IC50 in assay [1] and in assay [2] was 13 nM throughout.

`CCOC(=O)/C(C)=C/[C@H](C(C)C)N(C)C(=O)[C@@H](NC(=O)[C@H](NC)C(C)(C)c1ccc(Br)cc1)C(C)(C)C`: the IC50 in assay [1] stood at 10 nM; in assay [2], 172 nM.
